Laboratory results: paper PMC2892103 (Journal of molecular biology, 2010)

Target: T1, E. coli TrmD (Escherichia coli, UniProt P0A873)
T1 sequence (P0A873 1-255): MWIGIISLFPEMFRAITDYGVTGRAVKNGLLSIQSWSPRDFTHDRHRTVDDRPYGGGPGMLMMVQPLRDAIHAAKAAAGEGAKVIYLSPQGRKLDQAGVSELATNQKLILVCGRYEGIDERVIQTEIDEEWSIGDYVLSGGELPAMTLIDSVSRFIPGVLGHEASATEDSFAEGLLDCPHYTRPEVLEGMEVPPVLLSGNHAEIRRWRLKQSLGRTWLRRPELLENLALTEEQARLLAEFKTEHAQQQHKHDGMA
Assay: intrinsic tryptophan fluorescence quenching, quadratic fit
Type: binding

SMILES	Kd [nM]
Nc1ncnc2c1ncn2[C@@H]1O[C@H](CSCC[C@H](N)C(=O)O)[C@@H](O)[C@H]1O [AdoHcy]	330 ± 40
C[S+](CC[C@H](N)C(=O)O)C[C@H]1O[C@@H](n2cnc3c(N)ncnc32)[C@H](O)[C@@H]1O (some centres unmarked) [AdoMet]	1100 ± 200
